Results as given in ChEMBL document CHEMBL1201862, “PubChem BioAssay data set” (2004).
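In this assay, cells in 96-well plates receive the compound at five concentrations for 48 hours. Endpoints are linearly interpolated between the surrounding concentrations. Abbreviation: GI50, concentration required for 50% inhibition of growth.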 Calls of active or inactive are those of the source. Cut-off read from the data, not from the text of the source: active = GI50 up to about 1.1 µM and inactive = higher.

Assays:
Experiment in all cases: NCI anticancer screen, dose series, 48 h
LOX IMVI = system: LOX IMVI
MDA-N = system: MDA-N
MDA-MB-231 = system: MDA-MB-231
MCF7 = system: MCF7
RPMI-8226 = system: RPMI-8226
COLO 205 = system: COLO 205
OVCAR-5 = system: OVCAR-5
HL-60 = system: HL-60
T47D = system: T47D
SN12C = system: SN12C
CCRF-CEM = system: CCRF-CEM
IGROV-1 = system: IGROV-1
Malme-3M = system: Malme-3M
NCI-H522 = system: NCI-H522
HCT-15 = system: HCT-15
M14 = system: M14
HCT-116 = system: HCT-116
CAKI-1 = system: CAKI-1
SF-539 = system: SF-539
HOP-62 = system: HOP-62

Measured: GI50

CC1(O)/C(=N/O)CC2CC1C2(C)C (centres undefined)
> 100 µM: HCT-15
inactive: LOX IMVI > 100 µM | MDA-N > 100 µM | MDA-MB-231 > 100 µM | MCF7 > 100 µM | RPMI-8226 > 100 µM | COLO 205 > 100 µM | OVCAR-5 > 100 µM | HL-60 > 100 µM | T47D > 100 µM | SN12C > 100 µM | CCRF-CEM > 100 µM | IGROV-1 > 100 µM | Malme-3M > 100 µM | NCI-H522 > 100 µM | M14 > 100 µM

COP(=O)(OC)/C(=C\c1cn(C(c2ccccc2)(c2ccccc2)c2ccccc2)cn1)NC(C)=O
> 100 µM: HCT-15
inactive: LOX IMVI > 100 µM | MDA-N > 100 µM | MDA-MB-231 > 100 µM | MCF7 88.3 µM | COLO 205 84.3 µM | OVCAR-5 > 100 µM | HL-60 53.8 µM | HCT-116 58.5 µM | T47D > 100 µM | CAKI-1 > 100 µM | SN12C > 100 µM | SF-539 > 100 µM | CCRF-CEM 77.1 µM | IGROV-1 > 100 µM | Malme-3M > 100 µM | NCI-H522 > 100 µM | HOP-62 > 100 µM | M14 > 100 µM

CCCNc1ncnc2c1ncn2C
86.9 µM: HCT-15
inactive: LOX IMVI 31 µM | MDA-N > 100 µM | MDA-MB-231 67.1 µM | MCF7 53.6 µM | RPMI-8226 20.6 µM | COLO 205 96.4 µM | HL-60 32.9 µM | HCT-116 > 100 µM | T47D 44.4 µM | CAKI-1 36.1 µM | SN12C 27.4 µM | SF-539 34.2 µM | CCRF-CEM 22.1 µM | IGROV-1 54.7 µM | Malme-3M 45.3 µM | NCI-H522 41.8 µM | HOP-62 35.2 µM | M14 58.5 µM

Cc1cc(C)n(CN(Cn2nc(C)cc2C)C2CCCCC2)n1
20.6 µM: HCT-15
inactive: MDA-N 19 µM | MDA-MB-231 26.6 µM | MCF7 32.6 µM | RPMI-8226 18.6 µM | COLO 205 18.1 µM | OVCAR-5 22.9 µM | HCT-116 22.4 µM | T47D 28.2 µM | CAKI-1 31.5 µM | SN12C 27.5 µM | SF-539 15.7 µM | CCRF-CEM 19 µM | IGROV-1 20.1 µM | Malme-3M 20.5 µM | NCI-H522 20.7 µM | HOP-62 31.3 µM | M14 20.3 µM
active: LOX IMVI 0.0652 µM

Cc1cc(N(CCC#N)CCC#N)ccc1C(/N=N/c1ccc([N+](=O)[O-])cc1)=N\NC(=O)c1cc(Cl)ccc1C(=O)c1ccccc1
inactive: MDA-N 18.9 µM | MDA-MB-231 11.2 µM | MCF7 4.95 µM | RPMI-8226 11 µM | COLO 205 16.2 µM | OVCAR-5 26.1 µM | HCT-116 4.23 µM | T47D 5.18 µM | CAKI-1 12.5 µM | SN12C 19.3 µM | CCRF-CEM 2.98 µM | IGROV-1 3.56 µM | Malme-3M 13.2 µM | NCI-H522 1.87 µM | HOP-62 18.4 µM | M14 17.5 µM
4.8 µM: HCT-15

N=C(N)Nc1ccc(CC(N)NCC(=O)O)cc1 (centres undefined)
> 25 µM: HCT-15
inactive: LOX IMVI > 25 µM | MDA-N > 25 µM | MDA-MB-231 > 25 µM | MCF7 > 25 µM | RPMI-8226 > 25 µM | COLO 205 > 25 µM | OVCAR-5 > 25 µM | HL-60 > 25 µM | HCT-116 > 25 µM | T47D > 25 µM | CAKI-1 > 25 µM | SN12C > 25 µM | CCRF-CEM > 25 µM | IGROV-1 > 25 µM | Malme-3M > 25 µM | NCI-H522 > 25 µM | HOP-62 > 25 µM | M14 > 25 µM

CC(NC(=O)C(C)C(=O)Nc1ccc(C(F)(F)F)cc1)C(N)=O (centres undefined)
> 100 µM: HCT-15
inactive: MDA-N > 100 µM | MDA-MB-231 > 100 µM | MCF7 > 100 µM | RPMI-8226 > 100 µM | COLO 205 > 100 µM | OVCAR-5 > 100 µM | HL-60 > 100 µM | HCT-116 > 100 µM | T47D > 100 µM | CAKI-1 > 100 µM | SN12C > 100 µM | SF-539 > 100 µM | CCRF-CEM > 100 µM | IGROV-1 > 100 µM | Malme-3M > 100 µM | NCI-H522 > 100 µM | M14 > 100 µM

O=C1c2ccccc2CC12Cc1ccc3c(c1C2=O)CCCC3 (centres undefined)
5.13 µM: HCT-15
active: MDA-MB-231 0.948 µM
inactive: LOX IMVI 19.9 µM | MDA-N 6.35 µM | MCF7 > 100 µM | RPMI-8226 18.2 µM | COLO 205 13 µM | OVCAR-5 > 100 µM | HL-60 16.8 µM | HCT-116 3.57 µM | T47D 1.39 µM | SN12C 14.1 µM | SF-539 4.89 µM | CCRF-CEM 49 µM | IGROV-1 4.71 µM | Malme-3M 82.2 µM | NCI-H522 5.21 µM | HOP-62 7.74 µM | M14 8.61 µM

Br[C@@H]1[C@H]2c3nc4ccccc4nc3[C@@H]1C[C@H]2Br
61.5 µM: HCT-15
inactive: LOX IMVI > 100 µM | MDA-N > 100 µM | MDA-MB-231 > 100 µM | MCF7 81.7 µM | COLO 205 45.7 µM | OVCAR-5 > 100 µM | HL-60 32.5 µM | HCT-116 59.7 µM | T47D 36.8 µM | CAKI-1 > 100 µM | SN12C > 100 µM | CCRF-CEM 37 µM | IGROV-1 > 100 µM | Malme-3M > 100 µM | NCI-H522 54.8 µM | HOP-62 > 100 µM | M14 > 100 µM

O=C(Nc1ccccc1)N(CCCCN(Cc1ccccc1)C(=O)Nc1ccccc1)Cc1ccccc1
inactive: LOX IMVI > 100 µM | MDA-N > 100 µM | MDA-MB-231 48.6 µM | MCF7 92 µM | RPMI-8226 > 100 µM | COLO 205 > 100 µM | OVCAR-5 > 100 µM | HL-60 > 100 µM | HCT-116 30.1 µM | T47D 25.9 µM | CAKI-1 > 100 µM | SN12C > 100 µM | CCRF-CEM > 100 µM | IGROV-1 > 100 µM | Malme-3M > 100 µM | NCI-H522 95.3 µM | HOP-62 > 100 µM | M14 > 100 µM
> 100 µM: HCT-15

CC(=O)Nc1ccc(OC/C(N)=N/NC(=O)c2ccncc2)cc1
> 100 µM: HCT-15
inactive: LOX IMVI > 100 µM | MDA-N > 100 µM | MDA-MB-231 > 100 µM | MCF7 > 100 µM | RPMI-8226 > 100 µM | COLO 205 > 100 µM | OVCAR-5 > 100 µM | HL-60 > 100 µM | HCT-116 > 100 µM | T47D > 100 µM | CAKI-1 > 100 µM | SN12C > 100 µM | SF-539 > 100 µM | CCRF-CEM > 100 µM | IGROV-1 > 100 µM | NCI-H522 > 100 µM | HOP-62 > 100 µM | M14 > 100 µM

N=C(/C=C/c1ccc(-c2cn3cc(/C=C/C(=N)N4CCOCC4)ccc3n2)cc1)N1CCOCC1
> 100 µM: HCT-15
inactive: MDA-N > 100 µM | MDA-MB-231 > 100 µM | MCF7 94 µM | RPMI-8226 76.4 µM | COLO 205 > 100 µM | OVCAR-5 > 100 µM | HCT-116 > 100 µM | T47D > 100 µM | CAKI-1 > 100 µM | SN12C > 100 µM | SF-539 > 100 µM | IGROV-1 > 100 µM | Malme-3M > 100 µM | NCI-H522 62.8 µM | HOP-62 > 100 µM | M14 > 100 µM

Oc1nnnc2c1sc1ncccc12
inactive: LOX IMVI > 100 µM | MDA-N > 100 µM | MDA-MB-231 68.2 µM | MCF7 > 100 µM | COLO 205 > 100 µM | OVCAR-5 > 100 µM | HL-60 > 100 µM | HCT-116 > 100 µM | T47D > 100 µM | CAKI-1 > 100 µM | SN12C > 100 µM | SF-539 > 100 µM | CCRF-CEM > 100 µM | IGROV-1 > 100 µM | Malme-3M > 100 µM | NCI-H522 > 100 µM | HOP-62 > 100 µM | M14 > 100 µM
> 100 µM: HCT-15

COc1cc(N(CCC#N)CCC#N)ccc1C(/N=N/c1cccc([N+](=O)[O-])c1)=N\NC(=O)c1ccc(C)cc1
80.2 µM: HCT-15
inactive: LOX IMVI > 100 µM | MDA-N 84.5 µM | MDA-MB-231 > 100 µM | MCF7 45 µM | RPMI-8226 18.6 µM | COLO 205 > 100 µM | OVCAR-5 > 100 µM | HL-60 10.8 µM | HCT-116 50.5 µM | T47D 27.8 µM | CAKI-1 > 100 µM | SN12C > 100 µM | CCRF-CEM 20.6 µM | IGROV-1 > 100 µM | Malme-3M > 100 µM | NCI-H522 26.5 µM | HOP-62 > 100 µM | M14 > 100 µM

COc1cc2c[n+](C)c3c4cc(OC)c(OC)cc4c(OCc4ccccc4)cc3c2cc1OC
active: MDA-N 0.982 µM | MCF7 0.578 µM | COLO 205 0.263 µM | HCT-116 1.02 µM | T47D 0.0986 µM | SN12C 0.265 µM | SF-539 0.114 µM | NCI-H522 0.155 µM
> 100 µM: HCT-15
inactive: LOX IMVI 1.31 µM | MDA-MB-231 2.32 µM | RPMI-8226 5.28 µM | OVCAR-5 > 100 µM | CAKI-1 > 39.2 µM | Malme-3M 1.29 µM | HOP-62 1.86 µM | M14 1.77 µM
